In patent US11498946B2, “Pharmaceutical composition for combination therapy for preventing or treating cancer containing tumor-specific drug conjugate and anti-PD-L1 antibody as active ingredients” (KOREA INSTITUTE OF SCIENCE AND TECHNOLOGY, priority 2019, dated 2022):

Tests used:
[1] = In-vivo toxicity by body weight depending on time, and death, in tumor-bearing mice; conditions: HT-29 tumor-bearing nude mice
Description: Specifically, athymic nude mice (6-week-old, 20-25 g, male) purchased from Nara Bio (Gyenggi-do, Korea) were used. In order to express colorectal cancers in the male nude mice, a tumor animal model was prepared by subcutaneously inoculating 1×10^7 HT-29 colorectal cancer cells into left thighs. […] The formulated drug conjugate (FDOX) was administered intravenously at a concentration of 4 mg/kg, and the anti-PD-L1 antibody was administered intraperitoneally at a concentration of 10 mg/kg. A test group (FDOX+PD-L1 Ab) was prepared by administering the two therapeutic agents at 3-day intervals.
For the test group, the control group and the first, second and third comparison groups, tumor size was measured at 2-day intervals and calculated as maximum diameter×minimum diameter. In addition, the body weight of each group was measured at 2-day intervals to investigate in-vivo toxicity.

[2] = system: HT-29 colorectal cancer cells; assay: Tumor-treating effect in vivo, tumor volume depending on time, HT-29 tumor animal model; design: species or system athymic nude mice; conditions: HT-29 tumor in nude mice; FDOX or DOX 4 mg/kg intravenously, anti-PD-L1 antibody 10 mg/kg intraperitoneally, 3-day intervals
Description: The following comparison groups were prepared to compare the efficiency of the test group.
Control group (control): identical to the test group except that no drug was administered.
First comparison group (FDOX): identical to the test group except that only the formulated drug conjugate (FDOX) was administered without the anti-PD-L1 antibody.
Second comparison group (DOX+PD-L1 Ab): identical to the test group except that 4 mg/kg of doxorubicin was administered intravenously instead of the formulated drug conjugate (FDOX).

[3] = design: species or system athymic nude mice; conditions: mouse, in vivo
Description: For the animal models of the second and third comparison groups, the organs were extracted on day 20 after the drug administration because the animals died within 20 days. After preparing tissues of each extracted organ into 10-μm thick sections, cell death in the organ was evaluated by staining cancerous tissues with annexin V. In addition, the tissues extracted from the major organs (heart, kidney, spleen, lung and liver) were stained with hematoxylin and eosin for investigation of the structural change in the tissues and toxicity.

For `COc1cccc2c1C(=O)c1c(O)c3c(c(O)c1C2=O)C[C@@](O)(C(=O)CO)C[C@@H]3O[C@H]1C[C@H](N)[C@H](O)[C@H](C)O1` [DOX, doxorubicin], which “in-vivo / systemic toxicity” value [1] is on record?
Its value is “fatal side effect leading to death”.

What about the “tumor growth (tumor volume depending on time)” value [2] of the same compound?
The value was “could be delayed but could not be completely inhibited”.

And the “change in the major organs (H&E)” value [3]?
The value was “long-term toxicity such as hemorrhage, disruption of tissue structure, enucleation”.
